Two molecules from patent publication US6410563B1, “Substituted 8-arylquinoline phosphodiesterase-4 inhibitors” (Merck Frosst Canada & Co., priority 1999, dated 2002) can be followed below.

The nature of this series: Formation as a metabolite in the mammalian system. Set-up: species or system mammal. The conditions noted are these: Example 19 is formed in vivo when Example 14 is administered. On the procedure: For example, Example 19, (5-{(E)-2-(3-{6-[1-methyl-1-(methylsulfonyl)ethyl]-8-quinolinyl}phenyl)-1-[4-(methylslfonyl)phenyl]ehtenyl}-1,2,4-oxadiazol-3-yl)methanol; [drawing 2]
is administered. Accordingly, the present invention includes prodrugs that form PDE4 inhibitors in vivo as a metabolite after administering such prodrugs to a mammal. Further, this invention includes a method of treatment by a step of administering a prodrug to form in vivo an effective amount of a PDE4 inhibitor described by Formula I.

Structures are written as SMILES.

Regarding `Cc1noc(/C(=C/c2cccc(-c3cc(C(C)(C)S(C)(=O)=O)cc4cccnc34)c2)c2ccc(S(C)(=O)=O)cc2)n1` [Example 14, 6-[1-methyl-1-(methylsulfonyl)ethyl]-8-(3-{(E/Z)-2-(3-methyl-1,2,4-oxadiazol-5-yl)-2-[4-(methylsulfonyl)phenyl]ethenyl}phenyl)quinoline], the “metabolite formation in vivo” value is “formed in vivo as a metabolite”.

As to `CC(C)(c1cc(-c2cccc(/C=C(\c3ccc(S(C)(=O)=O)cc3)c3nc(CO)no3)c2)c2ncccc2c1)S(C)(=O)=O` [Example 19, (5-{(E)-2-(3-{6-[1-methyl-1-(methylsulfonyl)ethyl]-8-quinolinyl}phenyl)-1-[4-(methylsulfonyl)phenyl]ethenyl}-1,2,4-oxadiazol-3-yl)methanol], the “metabolite formation in vivo” value is given as “formed as a metabolite in the mammalian system”.
